Tests used:
[1] = target: PI3K-δ (PI3K(p1108/p857) (h)) (Homo sapiens, UniProt O00329); test: Evaluation of inhibitory activity against PI3K-δ (HTRF kinase assay); type: biochemical; details: for inhibition at 0.01 µM: compound concentration 0.01 μM, read-out: EXP_VALUE(% Inhibition) PI3K-δ 0.01 μM; for inhibition at 0.1 µM: compound concentration 0.1 μM, read-out: EXP_VALUE(% Inhibition) PI3K-δ 0.1 μM
Method in brief: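 HTRF read-out (665/620 nm ratio ×10000) used Eu-labelled anti-GST, GST-tagged GRP1 PH domain and streptavidin-allophycocyanin after EDTA/PIP3 stop.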

DNA-PK(h) = DNA-PK(h) (Homo sapiens, UniProt P78527); test: Evaluation of inhibitory activity against DNA-PK (HTRF kinase assay, GST-cMyc-p53 substrate); type: biochemical; details: for inhibition at 0.01 µM: compound concentration 0.01 μM, read-out: EXP_VALUE(% Inhibition) DNA-PK(h) 0.01 μM; for inhibition at 0.1 µM: compound concentration 0.1 μM, read-out: EXP_VALUE(% Inhibition) DNA-PK(h) 0.1 μM
Method in brief: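 Human DNA-PK with 50 μM GST-cMyc-p53 substrate; reaction started with Mg/ATP, run 30 min at room temperature, stopped with EDTA. Phospho-Ser15 p53 detected by HTRF (Eu anti-phospho-Ser15, d2 anti-GST), signal = 10000×(Em 665/Em 620).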

Chain of PI3K-δ (PI3K(p1108/p857) (h)) (O00329 whole entry, the tested form may be a part): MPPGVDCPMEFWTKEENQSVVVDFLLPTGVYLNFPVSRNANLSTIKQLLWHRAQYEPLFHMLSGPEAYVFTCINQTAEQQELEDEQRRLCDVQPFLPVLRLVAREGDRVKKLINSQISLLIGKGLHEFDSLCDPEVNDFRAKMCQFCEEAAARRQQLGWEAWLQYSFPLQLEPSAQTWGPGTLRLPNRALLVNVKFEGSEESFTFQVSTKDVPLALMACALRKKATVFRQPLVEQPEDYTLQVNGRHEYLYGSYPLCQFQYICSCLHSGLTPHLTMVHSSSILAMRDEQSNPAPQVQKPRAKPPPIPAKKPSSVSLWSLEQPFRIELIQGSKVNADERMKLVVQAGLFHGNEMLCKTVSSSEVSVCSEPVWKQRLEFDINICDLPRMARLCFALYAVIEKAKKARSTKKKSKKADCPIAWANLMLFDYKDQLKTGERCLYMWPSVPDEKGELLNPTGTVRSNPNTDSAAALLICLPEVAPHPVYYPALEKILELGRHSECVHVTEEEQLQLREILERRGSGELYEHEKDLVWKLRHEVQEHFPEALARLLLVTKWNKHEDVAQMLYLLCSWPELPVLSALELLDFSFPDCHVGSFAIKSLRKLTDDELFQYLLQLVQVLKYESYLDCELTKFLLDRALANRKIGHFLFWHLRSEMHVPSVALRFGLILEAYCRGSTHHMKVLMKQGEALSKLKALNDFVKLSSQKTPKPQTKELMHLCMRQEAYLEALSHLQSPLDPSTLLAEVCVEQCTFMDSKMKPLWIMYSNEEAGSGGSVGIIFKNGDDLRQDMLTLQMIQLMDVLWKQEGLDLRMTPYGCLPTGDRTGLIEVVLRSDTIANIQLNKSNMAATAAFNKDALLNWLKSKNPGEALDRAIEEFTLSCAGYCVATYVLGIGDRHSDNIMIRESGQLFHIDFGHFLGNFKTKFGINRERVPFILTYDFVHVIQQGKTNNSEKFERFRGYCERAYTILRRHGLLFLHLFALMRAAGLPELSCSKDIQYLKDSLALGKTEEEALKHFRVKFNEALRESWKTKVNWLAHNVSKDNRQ
Chain of PI3K-δ (PI3K(p1108/p857) (h)) (P27986 whole entry partner, the tested form may be a part): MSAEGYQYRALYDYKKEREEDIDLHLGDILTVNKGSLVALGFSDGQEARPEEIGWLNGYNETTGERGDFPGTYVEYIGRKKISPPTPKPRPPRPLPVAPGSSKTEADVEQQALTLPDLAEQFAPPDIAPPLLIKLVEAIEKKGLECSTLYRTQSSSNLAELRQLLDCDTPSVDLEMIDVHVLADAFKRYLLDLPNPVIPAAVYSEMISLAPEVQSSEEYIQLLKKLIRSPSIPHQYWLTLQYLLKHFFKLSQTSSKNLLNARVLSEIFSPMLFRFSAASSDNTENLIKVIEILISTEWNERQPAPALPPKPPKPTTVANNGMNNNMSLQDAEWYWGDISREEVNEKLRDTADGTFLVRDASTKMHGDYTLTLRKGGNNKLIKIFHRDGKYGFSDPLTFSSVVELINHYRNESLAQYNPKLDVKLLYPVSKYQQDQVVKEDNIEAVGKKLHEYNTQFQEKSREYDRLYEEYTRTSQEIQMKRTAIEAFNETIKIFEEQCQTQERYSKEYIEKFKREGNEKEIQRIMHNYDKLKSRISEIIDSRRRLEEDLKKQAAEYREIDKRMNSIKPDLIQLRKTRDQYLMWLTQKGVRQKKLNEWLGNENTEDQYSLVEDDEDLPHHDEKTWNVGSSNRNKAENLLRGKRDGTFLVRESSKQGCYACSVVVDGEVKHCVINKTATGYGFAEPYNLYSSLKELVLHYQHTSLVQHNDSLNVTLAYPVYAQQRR

| Structure (SMILES) | inhibition at 0.01 µM [1] | inhibition at 0.01 µM (DNA-PK(h)) | inhibition at 0.1 µM [1] | inhibition at 0.1 µM (DNA-PK(h)) |
| --- | --- | --- | --- | --- |
| COc1ccc(Nc2cccc3c(Cl)c([C@H](C)Nc4ncnc5[nH]ccc(=O)c45)n(-c4ccccc4)c(=O)c23)cc1 [Example 345, (S)-4-((1-(4-chloro-8-((4-methoxyphenyl)amino)-1-oxo-2-phenyl-1,2-dihydroisoquinolin-3-yl)ethyl)amino)pyrido[2,3-d]pyrimidin-5(8H)-one] | 10% | 0% |  |  |
| C[C@H](Nc1ncnc2[nH]ccc(=O)c12)c1c(Cl)c2cccc(Nc3ccc(C(F)(F)F)cc3)c2c(=O)n1-c1ccccc1 [Example 346, (S)-4-((1-(4-chloro-1-oxo-2-phenyl-8-((4-(trifluoromethyl)phenyl)amino)-1,2-dihydroisoquinolin-3-yl)ethyl)amino)pyrido[2,3-d]pyrimidin-5(8H)-one] | 9% | 1% |  |  |
| C[C@H](Nc1ncnc2[nH]ccc(=O)c12)c1c(Cl)c2cccc(Nc3cccnc3)c2c(=O)n1-c1ccccc1 [Example 347, (S)-4-((1-(4-chloro-1-oxo-2-phenyl-8-(pyridin-3-ylamino)-1,2-dihydroisoquinolin-3-yl)ethyl)amino)pyrido[2,3-d]pyrimidin-5(8H)-one] | 11% | 28% |  |  |
| C[C@H](Nc1ncnc2[nH]ccc(=O)c12)c1c(Cl)c2cccc(Nc3ccccn3)c2c(=O)n1-c1ccccc1 [Example 348, (S)-4-((1-(4-chloro-1-oxo-2-phenyl-8-(pyridin-2-ylamino)-1,2-dihydroisoquinolin-3-yl)ethyl)amino)pyrido[2,3-d]pyrimidin-5(8H)-one] | 5% | -1% |  |  |
| C[C@H](Nc1ncnc2[nH]ccc(=O)c12)c1c(Cl)c2cccc(N(C)c3ccccn3)c2c(=O)n1-c1ccccc1 [Example 349, (S)-4-((1-(4-chloro-8-(methyl(pyridin-2-yl)amino)-1-oxo-2-phenyl-1,2-dihydroisoquinolin-3-yl)ethyl)amino)pyrido[2,3-d]pyrimidin-5(8H)-one] | 72% | 15% |  |  |
| C[C@H](Nc1ncnc2[nH]ccc(=O)c12)c1c(Cl)c2cccc(/C(N)=N/O)c2c(=O)n1-c1ccccc1 [Example 350, (S,Z)-4-chloro-N′-hydroxy-1-oxo-3-(1-((5-oxo-5,8-dihydropyrido[2,3-d]pyrimidin-4-yl)amino)ethyl)-2-phenyl-1,2-dihydroisoquinoline-8-carboximidamide] | 109% | 15% | 117% | 55% |
| C[C@H](Nc1ncnc2[nH]ccc(=O)c12)c1c(Cl)c2cccc(-c3ncon3)c2c(=O)n1-c1ccccc1 [Example 351, (S)-4-((1-(4-chloro-8-(1,2,4-oxadiazol-3-yl)-1-oxo-2-phenyl-1,2-dihydroisoquinolin-3-yl)ethyl)amino)pyrido[2,3-d]pyrimidin-5(8H)-one] | 50% | 45% | 91% | 89% |
| C[C@H](Nc1ncnc2[nH]ccc(=O)c12)c1c(Cl)c2cccc(-c3nnn[nH]3)c2c(=O)n1-c1ccccc1 [Example 352, (S)-4-((1-(4-chloro-1-oxo-2-phenyl-8-(1H-tetrazol-5-yl)-1,2-dihydroisoquinolin-3-yl)ethyl)amino)pyrido[2,3-d]pyrimidin-5(8H)-one] | 27% | 34% | 75% | 76% |
| C[C@H](Nc1ncnc2[nH]ccc(=O)c12)c1c(Cl)c2cccc(B(O)O)c2c(=O)n1-c1ccccc1 [Example 353, (S)-(4-chloro-1-oxo-3-(1-((5-oxo-5,8-dihydropyrido[2,3-d]pyrimidin-4-yl)amino)ethyl)-2-phenyl-1,2-dihydroisoquinolin-8-yl)boronic acid] | 84% | 19% | 94% | 62% |
| CCc1cccc2c(Cl)c([C@H](C)Nc3ncnc4[nH]ccc(=O)c34)n(-c3ccccc3)c(=O)c12 [Example 354, (S)-4-((1-(4-chloro-8-ethyl-1-oxo-2-phenyl-1,2-dihydroisoquinolin-3-yl)ethyl)amino)pyrido[2,3-d]pyrimidin-5(8H)-one] | 95% | 63% | 106% | 94% |
| C[C@H](Nc1ncnc2[nH]ccc(=O)c12)c1c(Cl)c2cccc(CO)c2c(=O)n1-c1ccccc1 [Example 355, (S)-4-((1-(4-chloro-8-(hydroxymethyl)-1-oxo-2-phenyl-1,2-dihydroisoquinolin-3-yl)ethyl)amino)pyrido[2,3-d]pyrimidin-5(8H)-one] | 78% | 47% |  |  |
| C[C@H](Nc1ncnc2[nH]ccc(=O)c12)c1c(Cl)c2cccc(C3NCCS3)c2c(=O)n1-c1ccccc1 (stereo partly drawn) [Example 356, 4-(((1S)-1-(4-chloro-1-oxo-2-phenyl-8-(thiazolidin-2-yl)-1,2-dihydroisoquinolin-3-yl)ethyl)amino)pyrido[2,3-d]pyrimidin-5(8H)-one] | 62% | 34% |  |  |
| C[C@H](Nc1ncnc2[nH]ccc(=O)c12)c1c(Cl)c2cccc(C(O)C(C)(C)C)c2c(=O)n1-c1ccccc1 (stereo partly drawn) [Example 357, 4-(((1S)-1-(4-chloro-8-(1-hydroxy-2,2-dimethylpropyl)-1-oxo-2-phenyl-1,2-dihydroisoquinolin-3-yl)ethyl)amino)pyrido[2,3-d]pyrimidin-5(8H)-one] | 11% | 15% |  |  |
| C[C@H](Nc1ncnc2[nH]ccc(=O)c12)c1c(Cl)c2cccc(C3OCC(C)(C)CO3)c2c(=O)n1-c1ccccc1 [Example 358, (S)-4-((1-(4-chloro-8-(5,5-dimethyl-1,3-dioxan-2-yl)-1-oxo-2-phenyl-1,2-dihydroisoquinolin-3-yl)ethyl)amino)pyrido[2,3-d]pyrimidin-5(8H)-one] | 37% | -1% |  |  |
| C[C@H](Nc1ncnc2[nH]ccc(=O)c12)c1c(Cl)c2cccc(COCC(C)(C)CO)c2c(=O)n1-c1ccccc1 [Example 359, (S)-4-((1-(4-chloro-8-((3-hydroxy-2,2-dimethylpropoxy)methyl)-1-oxo-2-phenyl-1,2-dihydroisoquinolin-3-yl)ethyl)amino)pyrido[2,3-d]pyrimidin-5(8H)-one] | 46% | 8% |  |  |
| C[C@H](Nc1ncnc2[nH]ccc(=O)c12)c1c(Cl)c2cccc(C(C)(C)O)c2c(=O)n1-c1ccccc1 [Example 360, (S)-4-((1-(4-chloro-8-(2-hydroxypropan-2-yl)-1-oxo-2-phenyl-1,2-dihydroisoquinolin-3-yl)ethyl)amino)pyrido[2,3-d]pyrimidin-5(8H)-one] | 6% | -4% |  |  |
| C[C@H](Nc1ncnc2[nH]ccc(=O)c12)c1c(Cl)c2cccc([C@@H](C)O)c2c(=O)n1-c1ccccc1 [Example 361, 4-(((S)-1-(4-chloro-8-((R)-1-hydroxyethyl)-1-oxo-2-phenyl-1,2-dihydroisoquinolin-3-yl)ethyl)amino)pyrido[2,3-d]pyrimidin-5(8H)-one] | 56% | 48% |  |  |
| C[C@H](Nc1ncnc2[nH]ccc(=O)c12)c1c(Cl)c2cccc(OCc3ccccc3)c2c(=O)n1-c1ccccc1 [Example 362, (S)-4-((1-(8-(benzyloxy)-4-chloro-1-oxo-2-phenyl-1,2-dihydroisoquinolin-3-yl)ethyl)amino)pyrido[2,3-d]pyrimidin-5(8H)-one] | 21% | 29% | 64% | 67% |
| COCCOc1cccc2c(Cl)c([C@H](C)Nc3ncnc4[nH]ccc(=O)c34)n(-c3ccccc3)c(=O)c12 [Example 363, (S)-4-((1-(4-chloro-8-(2-methoxyethoxy)-1-oxo-2-phenyl-1,2-dihydroisoquinolin-3-yl)ethyl)amino)pyrido[2,3-d]pyrimidin-5(8H)-one] | 26% | 35% | 76% | 80% |
| C[C@H](Nc1ncnc2[nH]ccc(=O)c12)c1c(Cl)c2cccc(OCC(F)(F)F)c2c(=O)n1-c1ccccc1 [Example 364, (S)-4-((1-(4-chloro-1-oxo-2-phenyl-8-(2,2,2-trifluoroethoxy)-1,2-dihydroisoquinolin-3-yl)ethyl)amino)pyrido[2,3-d]pyrimidin-5(8H)-one] | 29% | 21% | 76% | 82% |
| COc1cccc2c(Cl)c([C@H](C)Nc3ncnc4[nH]ccc(=O)c34)n(-c3ccccc3)c(=O)c12 [Example 365, (S)-4-((1-(4-chloro-8-methoxy-1-oxo-2-phenyl-1,2-dihydroisoquinolin-3-yl)ethyl)amino)pyrido[2,3-d]pyrimidin-5(8H)-one] | 31% | 28% | 84% | 65% |
| COc1ccccc1Oc1cccc2c(Cl)c([C@H](C)Nc3ncnc4[nH]ccc(=O)c34)n(-c3ccccc3)c(=O)c12 [Example 366, (S)-4-((1-(4-chloro-8-(2-methoxyphenoxy)-1-oxo-2-phenyl-1,2-dihydroisoquinolin-3-yl)ethyl)amino)pyrido[2,3-d]pyrimidin-5(8H)-one] | 41% | 23% | 85% | 69% |

Reference: patent publication US20230072683A1, “PYRIDO-PYRIMIDIN DERIVATIVES AND PHARMACEUTICAL COMPOSITION, FOR USE IN PREVENTING OR TREATING PI3 KINASE RELATED DISEASES, COMPRISING SAME AS ACTIVE INGREDIENT” (BORYUNG PHARMACEUTICAL CO., LTD, priority 2019, published 2023)
